# According to patent US5137811A, “Method for diagnosing periodontal diseases with a substrate specific for aminopeptidase activity of periodontopathic bacteria” (Sunstar Kabushiki Kaisha, priority 1986, dated 1992):
# Where a SMILES comes first, the peptide text is derived from it. The star is where a group is joined. βNA = c1ccc2cc(N*)ccc2c1; Bz = O=C(c1ccccc1)*
# Experiments:
# [1] = test system: Actinobacillus actinomycetemcomitans; experiment: Hydrolytic activity of oral anaerobe cell suspension on aminopeptidase substrates (Experiment 1); type: cell-based; settings: four strains, substrate 0.2 mM, pH 7.0, 37° C., 60 minutes, Table 1
# Summary of the method: (§1)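 Treponema grown anaerobically in TYGVS (37 °C, 7 days) and other strains in brain heart infusion (37 °C, 48–72 h), then diluted to A660 1.0. Cells reacted 60 min at 37 °C with β-naphthylamine-derived substrates (0.2 mM solution, 0.1 M Tris-HCl pH 7.0). Garnet GBC coupling, A525 after 15 min; activity graded from mean released β-naphthylamine per strain.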
# Bacteroides gingivalis = experiment: as above; type: cell-based; settings: five strains, substrate 0.2 mM, pH 7.0, 37° C., 60 minutes, Table 1
# Summary of the method: as §1
# Capnocytophaga sp. = experiment: as above; type: cell-based; settings: four strains, substrate 0.2 mM, pH 7.0, 37° C., 60 minutes, Table 1
# Summary of the method: as §1
# Fusobacterium nucleatum [2] = experiment: as above; type: cell-based; settings: three strains, substrate 0.2 mM, pH 7.0, 37° C., 60 minutes, Table 1
# Summary of the method: as §1
# Treponema denticola [3] = experiment: as above; type: cell-based; settings: four strains, substrate 0.2 mM, pH 7.0, 37° C., 60 minutes, Table 1
# Summary of the method: as §1
# [4] = test system: Actinobacillus actinomycetemcomitans; experiment: Hydrolytic activity of cell suspension, substrates alone or in combination (Experiment 3); type: cell-based; settings: four strains, Table 3
# Protocol: (§2) The strains of Treponema were anaerobically cultivated using TYGVS media at 37° C. for 7 days, while other bacterial strains were cultivated using brain heart infusion broth at 37° C. for 48 to 72 hours. Each culture was diluted to obtain a bacterial cell suspension, the absorption at 660 nm of which was 1.0.
# (§3) Substrate compounds for aminopeptidase enzyme having various color developing groups derived from β-naphthylamine were dissolved in 0.1M Tris-HCl buffer (pH 7.0) at the concentration of 0.2 mM to obtain substrate solutions.
# (§4) To the substrate solution (1.5 ml) was added the above cell suspension (0.3 ml) and reacted at 37° C. for 60 minutes. After completion of the reaction, a coloring reagent [prepared by dissolving diazonium salt of Garnet GBC in 1M acetate buffer (containing 10% Tween 20, pH: 4.2) at the concentration of 0.5 mg/ml] was added and, after 15 minutes, the absorption at 525 nm was determined with a spectrophotometer.
# (§5) On the basis of the average amount of released β-naphthylamine in each strain, the hydrolytic activity was expressed as follows: […]
# (§6) According to the same manner as described in Experiment 1, periodontopathic bacteria specific aminopeptidase activity was tested by using four strains of Treponema denticola, five strains of B. gingivalis, four strains of Actinobacillus actinomycetemcomitans, two strains of Actinomyces israelli and three strains of Fusobacterium nucleatum. Abbreviations in Table 3 are the same as those in Tables 1 and 2. Hydrolytic activity "+++" means "40≤release amount<80 nmol/ml" and "++++" means "release amount≥80 nmol/ml".
# Actinomyces israelli = experiment: as above; type: cell-based; settings: two strains, Table 3
# Protocol: as §2, §3, §4, §5, §6
# B. gingivalis = experiment: as above; type: cell-based; settings: five strains, Table 3
# Protocol: as §2, §3, §4, §5, §6
# Fusobacterium nucleatum [5] = experiment: as above; type: cell-based; settings: three strains, Table 3
# Protocol: as §2, §3, §4, §5, §6
# Treponema denticola [6] = experiment: as above; type: cell-based; settings: four strains, Table 3
# Protocol: as §2, §3, §4, §5, §6
# [7] = test system: periodontopathic bacteria specific aminopeptidase activity; experiment: Hydrolytic activity of gingival crevicular fluid specimens, OD525 (Experiment 6); type: biochemical
# Protocol: as §3, §4
# Specimens of gingival crevicular fluid were collected with paper points from five subjects who were considered to be healthy from their clinical state, six subjects with gingivitis and six subjects with periodontitis. Each specimen was dispersed in Ringer's solution (1.5 ml), and the relative amount of spirochete to total bacteria: [formula] was determined with a phase contrast microscope. Further, the Ringer's solution (0.3 ml) was tested for hydrolytic activity using the substrate solution prepared in the same manner as described in Experiment 1. As substrates, there were used compounds of the formula [1], i.e., N-benzoylvalyl-glycyl-arginine-β-naphthylamide (BzVGR) and N-carbobenzoxy-valyl-glycyl-arginine-β-naphthylamide (CxVGR) were used.
# According to the same manner as described in Experiment 4, hydrolytic activity was tested by using the compounds of the formulas and [2], i.e., glycyl-proline-βnaphthylamide (GP), N-benzoyl-arginyl-glycyl-phenylalanylproline-β-naphthylamide (BzRGFP), N-carbobenzoxy-valylglycyl-arginine-β-naphthylamide (CxVGR) and N-benzoylglycyl-arginine-β-naphthylamide (BzGR) alone or in combination. Hydrolytic activity was determined by measuring absorption at 525 nm (OD525) and expressed as follows.
smiles,measurement,setting,value
"N=C(N)NCCC[C@H](NC(=O)CNC(=O)c1ccccc1)C(=O)Nc1ccc2ccccc2c1 [BzGR, N-benzoyl-glycyl-arginine-β-naphthylamide] (Bz-Gly-Arg-βNA)",hydrolytic activity (average amount of released β-naphthylamine),[1],- (release amount<5 nmol/ml)
same,hydrolytic activity (average amount of released β-naphthylamine),Bacteroides gingivalis,+++ (release amount≥40 nmol/ml)
same,hydrolytic activity (average amount of released β-naphthylamine),Capnocytophaga sp.,- (release amount<5 nmol/ml)
same,hydrolytic activity (average amount of released β-naphthylamine),Fusobacterium nucleatum [2],- (release amount<5 nmol/ml)
same,hydrolytic activity (average amount of released β-naphthylamine),Treponema denticola [3],++ (20 ≤release amount<40 nmol/ml)
same,hydrolytic activity (release amount),[4],- (release amount<5 nmol/ml)
same,hydrolytic activity (release amount),Actinomyces israelli,- (release amount<5 nmol/ml)
same,hydrolytic activity (release amount),B. gingivalis,+++ (40≤release amount<80 nmol/ml)
same,hydrolytic activity (release amount),Fusobacterium nucleatum [5],- (release amount<5 nmol/ml)
same,hydrolytic activity (release amount),Treponema denticola [6],++ (20 ≤release amount<40 nmol/ml)
same,"hydrolytic activity, absorption at 525 nm (OD525)",[7]; Gingivitis subject 1 (spirochete 7.3 %),+ (0.1≤OD525 <0.2)
same,"hydrolytic activity, absorption at 525 nm (OD525)",[7]; Gingivitis subject 2 (spirochete 16.7 %),+ (0.1≤OD525 <0.2)
same,"hydrolytic activity, absorption at 525 nm (OD525)",[7]; Gingivitis subject 3 (spirochete 20.5 %),++ (0.2≤OD525 <0.4)
same,"hydrolytic activity, absorption at 525 nm (OD525)",[7]; Gingivitis subject 4 (spirochete 6.8 %),- (OD525 <0.1)
same,"hydrolytic activity, absorption at 525 nm (OD525)",[7]; Gingivitis subject 5 (spirochete 7.3 %),- (OD525 <0.1)
same,"hydrolytic activity, absorption at 525 nm (OD525)",[7]; Healthy subject 1 (spirochete 0.1 %),- (OD525 <0.1)
same,"hydrolytic activity, absorption at 525 nm (OD525)",[7]; Healthy subject 3 (spirochete 1.1 %),- (OD525 <0.1)
same,"hydrolytic activity, absorption at 525 nm (OD525)",[7]; Healthy subject 4 (spirochete 0.6 %),- (OD525 <0.1)
same,"hydrolytic activity, absorption at 525 nm (OD525)",[7]; Healthy subject 5 (spirochete 1.3 %),- (OD525 <0.1)
same,"hydrolytic activity, absorption at 525 nm (OD525)",[7]; Periodontitis subject 1 (spirochete 45.2 %),++ (0.2≤OD525 <0.4)
same,"hydrolytic activity, absorption at 525 nm (OD525)",[7]; Periodontitis subject 2 (spirochete 30.3 %),++ (0.2≤OD525 <0.4)
same,"hydrolytic activity, absorption at 525 nm (OD525)",[7]; Periodontitis subject 3 (spirochete 34.6 %),++ (0.2≤OD525 <0.4)
same,"hydrolytic activity, absorption at 525 nm (OD525)",[7]; Periodontitis subject 4 (spirochete 21.2 %),++ (0.2≤OD525 <0.4)
same,"hydrolytic activity, absorption at 525 nm (OD525)",[7]; Periodontitis subject 5 (spirochete 40.3 %),++ (0.2≤OD525 <0.4)
same,"hydrolytic activity, absorption at 525 nm (OD525)",[7]; Periodontitis subject 6 (spirochete 35.1 %),++ (0.2≤OD525 <0.4)
